Source: patent US4077949A, “Polypeptide hormones of the thymus” (Sloan-Kettering Institute for Cancer Research, priority 1975, dated 1978)
Ends that are not written are not given here.

Tests used:
[1] = system: neuromuscular transmission; test: Electromyographic assay of neuromuscular transmission in mice after injection; format: in vivo; conditions: for activity of QAE-Sephadex fractions in producing neuromuscular block: fractions of Example 1, FIG. 3; for dose above which a statistically significant (P < .001) electromyographic decrement was produced / mean decrement: height of the tenth muscle action potential as % of the first: mice; for dose above which a statistically significant (P < .001) electromyographic decrement was produced: five days after dose, supramaximal nerve stimulation at 50 impulses per second; for mean decrement: height of the tenth muscle action potential as % of the first: five days after doses above threshold, 50 impulses per second, controls 94 ± 2%; for active dose range per body weight: test not specified
Protocol: To determine the neuromuscular action of Thymin I and Thymin II, the electromyographic response of mice five days after various doses of Thymin I or Thymin II is summarized in FIG. 4. Bovine serum albumin (0.5 mg/ml, 0.9% saline) was used as a protein stabilizer and controls were injected with the solvent alone.
In 15 control mice sampled at 75 sites the height of the tenth muscle action potential was 94 ± 2% (mean ± s.e.m.) of the height of the first. The mean values and s.e.m. (vertical bars) are shown for groups of 4-10 mice given various doses of Thymin I(o) and Thymin II (.quadrature.). Statistical significances of differences from the controls were calculated by Student's t-test and are shown by solid symbols (P < 0.001), half solid symbols (0.05 > P < 0.001) and open symbols (P > 0.05).
Mice were given 100 ng of Thymin I or solvent and five mice from each group were tested at various times. With supramaximal nerve stimulation at 50 impulses per second the height of the tenth muscle action potential was expressed as a percentage of the first. This change was calculated for five points in each of five to ten mice from each group. For each time point the change in Thymin-treated mice was expressed as a percentage of the change in solvent-treated control mice and the statistical significance of the difference was assessed by Student's t-test. A statistically significant (P < .001) abnormality in the electromyogram was first evident at 18 hours, was maximal at 24 hours and persisted through 5 days.
To make the determinations described in FIGS. 4 and 5, extracts were injected into test animals and neuromuscular transmission was studied after an interval of one to five days. Initially 100 g guinea pigs were injected intraperitoneally; neuromuscular transmission was studied in vitro with a preparation of the phrenic nerve and hemidiaphragm. Subsequently, 200 g rats were used; fractions were injected subcutaneously and neuromuscular transmission was assessed electromyographically. […] Female Swiss-Webster mice weighing 25-35 g were injected intraperitoneally, groups of five to ten mice being used to test each fraction. The animals were anesthetized with urethane and electromyography was performed as described. The muscle action potentials were recorded in each mouse following supramaximal nerve stimulation with ten impulses at a rate of 50 per second. Five sites were sampled in each mouse and for each group of mice the mean standard deviation and s.e.m. were calculated for the change in the height of the muscle action, potential being expressed as a percentage of the height of the first impulse.
The statistical significance of differences found were assessed by student's t-test.

[2] = system: TL antigen on mouse bone marrow cells; test: Cytotoxic inhibition test: induction of TL antigen on bone marrow cells; format: cell-based; conditions: for absorption of anti TL antibody by incubated bone marrow cells: unfractionated cells, 100 ng/ml, 18 hours
Text: (§1) Mice of the A/J, C57B1/6J, AKR/J and C58/J strains were purchased from the Jackson Laboratories (Bar Harbon, Me). A.TL-mice were bred at New York University from foundation stock. All mice were housed eight to a cage, and maintained on commercial high protein mouse pellets and acidified water.
(§2) Antibodies to TL antigen were produced by injecting live tumor cells (ASL-1) into A.TL- x C57B1/6J F.1 mice. After five semimonthly injections the animals were bled and the resultant serum pooled, absorbed with A.TL- thymus to remove autoantibodies, and stored in small aliquots at -70° C. […] Anti Thy 1-2 (0-C3H) was produced by injecting AKR/J mice with C58/J thymocytes and absorbing the resultant antiserum with AKR/J thymocytes.
Thymin I and Thymin II were isolated from bovine thymus as described. Each was dissolved in phosphate buffered saline (containing 1 mg/ml of bovine serum albumen to minimize adsorbtive losses), distributed into 2 μg lots and lyophilized. Each polypeptide was reconstituted in tissue culture medium at the desired concentrations just prior to use.
(§3) Bone marrow cells were obtained from the femoral marrow. Both spleen and marrow cells were teased into single cell suspensions and washed three times in RPMI 1640 medium supplemented with 10 mM Hepes and 100 U/ml of penicillin and 100 μg/ml of streptomycin. The cells were then suspended in the same medium with 10% bovine serum at a concentration of 5.0×10^6 cells/ml. One milliliter of this suspension was incubated with an appropriate dilution of thymin in 16 mm plastic petrie dishes in a humidified atmosphere containing 5% CO2 in air. At the end of the incubation the cells were washed twice and held at 4° C. at a concentration of 5.0×10^6 cells/ml in culture medium until tested for the presence of TL or Thy-1(0).
ASL-1, a TL positive, Thy 1-2 (0-C3H) positive lymphoma of A strain mice was used as the target cell in all titrations of the antisera used in these experiments, and in the cytotoxic inhibition test to be described below. The lymphoma was maintained by weekly intraperitoneal passage in A/J mice. Lymophoma cells were labelled with Cr^51 and used as target cells in the cytotoxic inhibited test.
Antisera to either TL or Thy-1 (0) were titered to determine the quantity of antibody which was required to kill 50% of the target cells in a standard suspension. The appropriate amount of antiserum was added to each well of a microtiter plate with various dilutions of the cells being tested for their antigen content. The total volume was 0.15 ml. Cells expressing the antigen against which the antiserum was directed absorbed varying amounts of the antibody, and rendered less available to react with the Cr^51 labelled target cells which were added subsequently. The concentration of antibody used was extremely critical to the sensitivity of the test. The antisera to TL or Thy-1 (0) and the cells being tested for their antigen content were incubated together at 4° C. for 90 minutes. After this incubation 50,000 target cells in a volume of […] were added and the incubation continued in the cold for an additional 30 minutes to permit the sensitization of the target cells by the remaining unabsorbed antibody. The plates were then centrifuged at 1,500 rpm for 10 minutes and the supernatant fluid removed. The pelleted cells were resuspended in 0.1 ml or RPMI 1640, containing 4% fresh rabbit serum as a source of complement, and incubated for 45 minutes at 37° C. The cells were then repelleted by centrifugation and a 0.075 ml aliquot of the supernatant fluid was counted in an automatic gamma spectrometer to determine the amount of Cr^51 released from the target cells. All assays were performed in duplicate and the results were expressed by calculating the number of cells required to reduce the relative cytotoxic index (RCI) to 0.5. The RCI was calculated as follows: [formula]

[3] = system: Thy-1(θ) antigen on mouse bone marrow cells; test: Cytotoxic inhibition test: induction of Thy-1(θ) antigen on bone marrow cells; format: cell-based; conditions: unfractionated cells, 100 ng/ml, 18 hours
Text: as §1, §2
Thymin I and Thymin II were isolated from bovine thymus as described. Each was dissolved in phosphate buffered saline (containing 1 mg/ml of bovine serum albumen to minimize adsorbtive losses), distributed into 2 μg lots and lyophilized. […]
Antisera to either TL or Thy-1 (0) were titered to determine the quantity of antibody which was required to kill 50% of the target cells in a standard suspension. […] The cells were then repelleted by centrifugation and a 0.075 ml aliquot of the supernatant fluid was counted in an automatic gamma spectrometer to determine the amount of Cr^51 released from the target cells. […] The RCI was calculated as follows: [formula]

[4] = system: bone marrow cells (least dense BSA gradient fraction); test: Direct cytotoxic test (trypan blue), anti TL antiserum plus complement, bone marrow cells; format: cell-based
Protocol: as §3
(§4) Bone marrow and spleen cells were obtained by flotation in BSA gradients similar to those used by Komuro and Boyse (Lancet, 10, 39, 1964). These cells were tested for their susceptibility to anti TL and Thy-1-(0) antibodies in a direct cytotoxicity test, using the uptake of trypan blue as a measure of cell death.

[5] = system: spleen cells (least dense BSA gradient fraction); test: Direct cytotoxic test (trypan blue), anti TL antiserum plus complement, spleen cells; format: cell-based, mouse; conditions: 20 ng/ml for two hours
Protocol: as §3, §4

[6] = Thymin I compared with Thymin II
[7] = single injection of 100 ng per mouse

H2 n-ser-gln-phe-leu-glu-asp-pro-ser-val-leu-thr-lys-glu-lys-leu-lys-ser-glu- leu-val-ala-asn-asn-val-thr-leu-pro-ala-gly-glu-gln-arg-lys-asp-val-tyr-val-gln-leu-tyr-leu-gln-thr-leu-thr-ala-val-lys-arg-cooh [Thymin II]
activity of QAE-Sephadex fractions in producing neuromuscular block [1]: active in producing neuromuscular block
dose above which a statistically significant (P < .001) electromyographic decrement was produced [1]: above 32 ng/mouse
mean decrement: height of the tenth muscle action potential as % of the first [1]: 82%
active dose range per body weight [1]: above 0.1 mg/kg of body weight
absorption of anti TL antibody by incubated bone marrow cells [2]: absorbed antibodies
absorption of anti Thy-1(θ) antibody by incubated bone marrow cells [3]: absorbed antibodies

GQFLEDPSVLTKEKLKSELVANNVTLPAGEQRKDVYVQLYLQHLTAVKR [Thymin I, H2 -gly-gln-phe-leu-glu-asp-pro-ser-val-leu-thr-lys-glu-lys-leu-lys-ser-glu-leu-val-ala-asn-asn-val-thr-leu-pro-ala-gly-glu-gln-arg-lys-asp-val-tyr-val- gln-leu-tyr-leu-gln-his-leu-thr-ala-val-lys-arg-cooh]
relative activity on neuromuscular transmission [1, 6]: slightly more active
activity of QAE-Sephadex fractions in producing neuromuscular block [1]: active in producing neuromuscular block
dose above which a statistically significant (P < .001) electromyographic decrement was produced [1]: above 4 ng/mouse
mean decrement: height of the tenth muscle action potential as % of the first [1]: 84%
time at which abnormality in the electromyogram was maximal [1, 7]: 24 h
time through which abnormality in the electromyogram persisted [1, 7]: ≥ 5 days
time at which abnormality in the electromyogram was first evident ([1]; single injection of 100 ng per mouse, P < .001): 18 h
active dose range per body weight [1]: above 0.1 mg/kg of body weight
active concentration as a fraction of that of the Bach et al. preparation [2]: approximately one thousandth
relative potency in inducing TL and Thy-1(θ) antigens [2, 6]: slightly more potent
concentration giving maximal induction of TL and Thy-1(θ) antigens ([2]; bone marrow cells): 2 ng/mL
lowest concentration producing a measurable (detectable) response ([2]; bone marrow cells): 20 pg/mL
absorption of anti TL antibody by incubated bone marrow cells [2]: absorbed antibodies
absorption of anti Thy-1(θ) antibody by incubated bone marrow cells [3]: absorbed antibodies
death of bone marrow cells caused by anti TL antiserum plus complement ([4]; 20 ng/ml for two hours, least dense fraction): 21%
highest cell death values obtained in other experiments ([4]; anti TL antiserum plus complement, tissue not specified): ≤ 28%
death of spleen cells caused by anti TL antiserum plus complement [5]: 18%
